This assay has as its system CylA. Briefly: CylA proteolytic cleavage of leader peptides (MALDI-TOF MS). It is filed as biochemical, Enterococcus faecalis. The method, then: Targeted peptides were dissolved in H2O to a final concentration of 3 mg/mL. To a 85 μL solution of peptides, 10 μL of 500 mM HEPES buffer (pH 7.5) was added followed by 5 μL of 0.5 mg/mL AspN protease (for modified CylLL and CylLS peptides), 0.1 mg/mL CylA protease (for modified and unmodified CylLL, CylLS peptides, and modified HalA2-GDVQAE peptide) or 0.1 mg/mL LicP protease (for LicA2). For cleavage tests of the engineered GDVQAE peptides, CylA was added to a final concentration of 0.01 mg/mL, whereas the peptide was added to a concentration of 0.3 mg/mL with 50 mM HEPES buffer (pH 7.5). The protease cleavage reaction mixtures were kept at 25° C. for 1 to 48 h. Osmotic pressure was adjusted with NaCl solution with a final concentration of 150 mM. The digested peptide mixture was directly used for antimicrobial and hemolytic assay. For the kinetic analysis of CylA and its mutant proteins, His6-CylA-27-412 and His6-CylA-27-412-E95A proteins were added to a final concentration of 500 ng/mL and 2.5 μg/mL (22 nM and 110 nM), respectively, with modified CylLS supplied at a concentration of 0.3 mg/mL (36 μM). The reactions were allowed to proceed at room temperature and were stopped by 1% TFA at different time points for LC/MS analysis. Halα and Halβ were obtained by factor Xa cleavage of modified HalA1Xa and HalA2 Xa peptides using the procedure of Y. Shi, et al. J. Am. Chem. Soc. […]

For “His6-NisA-GDVQAE: linear NisA with engineered GDVQAE recognition sequence”, the “leader peptide removal / cleavage by CylA” value is listed as “successfully removed”.

These data come from patent US20240018501A1, “HIGHER PERFORMANCE PROTEASES FOR SCARLESS PEPTIDE TAG REMOVAL” (priority 2017, published 2024).
